Test [1] concerns E. coli 736. In words: In vivo activity alone and in combination (PD50, FIC). Conditions: Escherichia coli, sc, alone. Here is the method: (§1) In Tables 9-14, the results of the in vivo activity against certain microorganisms of compounds I, M and N as given. […] The results in these Tables and the PD50 's were determined by the procedure set forth on page 160 in Beskid et al., Antimicrobial Agents and Chemotherapy, Vol. 20, No. 2 pp. 159-167 (Aug. 1981) for "in vivo studies".
(§2) In the Tables, the fractional inhibitory concentration index (FIC) for synergistic combination of a compound of this invention (X) with known antibiotic compound (Y) is determined by the following formula:
(§3) FIC=(PD50 (X combination)/PD50 (X alone)+(PD50 (Y
(§4) combination)/PD50 (Y alone)
(§5) An FIC of ≤0.60 is indicative of synergy. The synergy rating in the Tables is as follows:
(§6) In the combination, the parts are parts by weight, i.e. 10 to 1 is 10 parts by weight to 1 part by weight.

Test [2] has as its system K. pneumoniae 503-990A. The description is as above. To be noted: sc; for ED50: Klebsiella pneumoniae, 503990A, alone. Here is the method: as §1, §2, §3, §4, §5, §6
Test [3] deals with E. coli 257. In words: In vivo antibacterial activity (PD50). Conditions: Escherichia coli, 257, sc, challenge >10^4 LD50s, 1 treatment.
The subject of test [4] is E. coli 5152. In words: In vivo antibacterial activity (PD50). To be noted: Escherichia coli, 5152, sc, 2 treatments.
Test [5] concerns E. aerogenes 8. In words: In vivo antibacterial activity (PD50). Conditions: Klebsiella aerogenes, 8, sc, read-out: PD50, sc, 2 treatments.
The test system of test [6] is S. marcescens SM. In words: In vivo antibacterial activity (PD50). Conditions: Serratia marcescens; sc; challenge 489 LD50s; 2 treatments; Table 11.
Test [7] has as its system P. aeruginosa 503-56. In words: In vivo antibacterial activity (PD50). To be noted: Pseudomonas aeruginosa, 50356, sc, challenge 50 LD50s, 2 treatments, Table 11.
Test [8] relates to S. aureus Smith. The test is described as follows: In vivo antibacterial activity (PD50). Conditions: Staphylococcus aureus, sc, challenge 70 LD50s, 2 treatments, Table 11.
Test [9] deals with S. pyogenes 4. The test is described as follows: In vivo antibacterial activity (PD50). To be noted: Streptococcus pyogenes, 4, sc, sc, 2 treatments, read-out: PD50.
For test [10], the system named is S. pneumoniae 6302. In words: In vivo antibacterial activity (PD50). Conditions: Streptococcus pneumoniae, 6302, sc, challenge 1000 LD50s, 1 treatment, Table 11.
Test [11] has as its system S. faecalis C1. The test is described as follows: In vivo antibacterial activity (PD50). Conditions: Enterococcus faecalis, C1; sc; challenge 10 LD50s; 1 treatment; Table 11.
The subject of test [12] is P. aeruginosa 6148B. The test is described as follows: In vivo antibacterial activity (PD50). Conditions: Pseudomonas aeruginosa, sc.
In test [13] the test system is P. aeruginosa 6720. In words: In vivo antibacterial activity (PD50). To be noted: Pseudomonas aeruginosa, 6720, sc, 2 treatments.
In test [14] the test system is P. aeruginosa 6719. In words: In vivo antibacterial activity (PD50). To be noted: Pseudomonas aeruginosa, 6719, sc.
The subject of test [15] is P. aeruginosa 8710. In words: In vivo antibacterial activity (PD50). To be noted: Pseudomonas aeruginosa, 8710, sc.
In test [16] the test system is P. aeruginosa 6799. The test is described as follows: In vivo antibacterial activity (PD50). Conditions: Pseudomonas aeruginosa, 6799, sc, read-out: PD50.
Test [17] concerns K. pneumoniae HE7. The test is described as follows: In vivo antibacterial activity (PD50). To be noted: Klebsiella pneumoniae, HE7, sc, 2 treatments.
Test [18] relates to E. cloacae 6951. In words: In vivo antibacterial activity (PD50). To be noted: Enterobacter cloacae, 6951, sc, 2 treatments.
For test [19], the system named is S. marcescens S3. The test is described as follows: In vivo antibacterial activity (PD50). Conditions: Serratia marcescens, S3; sc; challenge 32 LD50s; 2 treatments; Table 11; read-out: PD50.
Test [20] has as its system E. coli 387-1. In words: In vivo antibacterial activity (PD50). To be noted: Escherichia coli, 3871; sc; challenge 127 LD50s; 1 treatment; Table 11.
For test [21], the system named is K. pneumoniae 8357. In words: animal or person. Type of test: in vivo. To be noted: Klebsiella pneumoniae, 8357, sc, read-out: PD50.
Test [22] concerns E. cloacae 214. The test is described as follows: In vivo antibacterial activity (PD50). To be noted: Enterobacter cloacae, sc, challenge 3.8 LD50s, 2 treatments, Table 11. On the procedure:
as §1

The test system of test [23] is S. schottmuelleri. The test is described as follows: In vivo antibacterial activity (PD50). To be noted: sc; challenge 163 LD50s; 1 treatment; Table 11. Here is the method: as §1
For test [24], the system named is C. freundii 8ASM. The test is described as follows: In vivo antibacterial activity (PD50). Conditions: Citrobacter freundii, sc, challenge 1000 LD50s, 1 treatment, Table 11.
In test [25] the test system is P. vulgaris 100. The test is described as follows: In vivo antibacterial activity (PD50). Conditions: Proteus vulgaris; sc; challenge 100 LD50s; 1 treatment; Table 11.
Test [26] concerns P. mirabilis 190. The test is described as follows: In vivo antibacterial activity (PD50). Conditions: Proteus mirabilis, sc, challenge 10^4 LD50s, 1 treatment, Table 11.
Test [27] relates to E. cloacae 4633. The test is described as follows: In vivo activity alone and in combination (PD50, FIC). To be noted: Enterobacter cloacae, 4633, sc, read-out: PD50 (alone). On the procedure:
as §1, §2, §3, §4, §5, §6

In test [28] the test system is E. coli BC5524. The test is described as above. Here is the method: as §1, §2, §3, §4, §5, §6

Read-outs that look alike come from different tables or passages of the source. Where only a bound is given, the exact number is not on record here.

Consider three compounds from patent publication US4605744A, “Imidazole derivatives” (Hoffmann-La Roche Inc., priority 1985, dated 1986).

Turning to `CC1(C)S[C@@H]2[C@H](NC(=O)[C@H](N)c3ccccc3)C(=O)N2[C@H]1C(=O)O` [Ampicillin, ampicillin, reference compound], the ED50 in test [1] is 5 mg/kg; in test [2], 29 mg/kg; in test [2] (Table 14 line (1)), 58 mg/kg; in [2] (Table 14 line (2)) it was 10 mg/kg. For the same compound, the “PD50 (alone)” value in test [2] came to 16 mg/kg.

Regarding `CO/N=C(\C(=O)N[C@@H]1C(=O)N2C(C(=O)O)=C(CSc3nc(=O)c(=O)[nH]n3C)CS[C@H]12)c1csc(N)n1` [Ceftriaxone, ceftriaxone], the ED50 was < 1 mg/kg in test [3] (Table 10); < 1 mg/kg in test [3] (Table 11); < 5 mg/kg in [4] (challenge 2717 LD50s, Table 10); < 2 mg/kg in test [4] (challenge 4780 LD50s, Table 11); 6.9 mg/kg in test [5] (challenge 10 LD50s, Table 11); 6.8 mg/kg in test [5] (challenge 24 LD50s, Table 10). Also, the ED50 is < 2 mg/kg in [6]; > 250 mg/kg in [7]; 3.2 mg/kg in test [8]; < 2 mg/kg in [9] (challenge 3.3 LD50s, Table 11); > 2 mg/kg in test [9] (challenge 100 LD50s, Table 10); 0.22 mg/kg in test [10]. Moreover, the ED50 in test [11] was 50 mg/kg; in test [12] (challenge 4.5 LD50s, 3 treatments, Table 10) it was < 5 mg/kg; in [12] (challenge 32 LD50s, 2 treatments, Table 11) it was 62 mg/kg; in [12] (challenge 33 LD50s, 3 treatments, Table 10) it was 8 mg/kg; in test [13] (challenge 35 LD50s, Table 11) it was 15 mg/kg; in test [13] (challenge 3511 LD50s, Table 10), 14 mg/kg. The ED50 is 18 mg/kg in [14] (challenge 2249 LD50s, 3 treatments, Table 10); 15 mg/kg in [14] (challenge 2290 LD50s, 2 treatments, Table 11); 41 mg/kg in test [15] (alone, challenge 1738 LD50s, Table 13, read-out: PD50 (alone)); 31 mg/kg in test [15] (challenge >10^4 LD50s, 2 treatments, Table 11, read-out: PD50); < 10 mg/kg in test [16]; 16 mg/kg in [16] (sc, challenge 71 LD50s, 2 treatments, Table 11). The ED50 in [17] (challenge 750 LD50s, Table 10) was < 1 mg/kg; in [17] (challenge 1000 LD50s, Table 11), 0.39 mg/kg; in test [18] (challenge 562 LD50s, Table 10), < 1 mg/kg; in [18] (challenge 3162 LD50s, Table 11), 0.03 mg/kg; in [19] it was 0.03 mg/kg; in test [20] it was 0.09 mg/kg. Further, the ED50 in test [21] is 0.03 mg/kg; in test [22] it was < 10 mg/kg; in [23] it was < 0.5 mg/kg; in test [24], 0.15 mg/kg; in [25], 0.05 mg/kg; in test [26] it was 7 µg/kg.

As for `CC(=O)OCC1=C(C(=O)O)N2C(=O)[C@@H](NC(=O)Cc3cccs3)[C@H]2SC1` [Cephalothin, cephalothin, reference compound], the ED50 was > 250 mg/kg in [27] and < 250 mg/kg in test [28] (Escherichia coli, BC5524, sc, read-out: PD50 (alone), sc). For the same compound, the “PD50 (alone)” value in test [28] (sc) is > 250 mg/kg.
